The source made the active and inactive calls.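 How the source made its calls: active means fitted curve reaches 40% activation below the top valid tested dose, in every test run; inconclusive means test runs disagree on the call; inactive means the rest, including effects opposite to the expected direction.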

In the first test the test system is HUVEC E-selectin immunostaining, imaging, 16 h. Briefly: E-selectin inducers in HUVECs, dose response, imaging, HUVEC, cherry-picked samples (AID 977605).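 Further: signal is the share of imaged cells scored positive for E-selectin.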
Conditions: not given
As to `Cc1cc2cc(CNC(=O)Nc3cccc(Cl)c3)ccc2n1C`, the AC40 was 10.8 µM.
On to `Cc1cccc(-c2cc(N3CCCN(C)CC3)n3nccc3n2)c1`, for which the AC40 was 5.24 µM.
Regarding `COc1ccc(S(=O)(=O)N(C)C[C@@H]2OCCCC[C@H](C)Oc3ccc(NC(=O)Nc4cccc5ccccc45)cc3C(=O)N([C@H](C)CO)C[C@H]2C)cc1`, the AC40 was 17.7 µM.
Still for that read-out and setting: under `CO[C@@H]1CN(C)C(=O)c2ccc(NC(=O)Nc3ccc(F)cc3)cc2OC[C@@H](C)N(C(=O)c2ccc(F)cc2)C[C@H]1C` stands 12.4 µM; under `O=C(C[C@@H]1CC[C@H]2[C@@H](COC[C@H](O)CN2C(=O)c2ccc(F)cc2)O1)Nc1ccc(-c2ccccc2)cc1`, 8 µM.
Same read-out and setting: under `Cc1cc2c(SCc3ccccc3Cl)nc(N)nc2nc1C` stands 11.4 µM; under `COc1ccc(Nc2ccccc2N)cc1`, 5.67 µM.
Same read-out and setting: the figure for `FC(F)(F)c1ccc2c(c1)N1CCCC1CN2` (stereo unspecified) is 7.71 µM.
As to `Cc1cc(C)c(S(=O)(=O)NCCn2c(C)cc3ccccc32)c(C)c1`, the AC40 was 14.3 µM.
In the case of `COc1ccc(CNC(=O)c2cc3c(c(-c4cccc(-c5cccc(C#N)c5)c4)n2)[C@H](CCO)N([S@@](=O)C(C)(C)C)C3)cc1`, the AC40 is 19.4 µM.
The same measure, in the same setting: under `Cc1cccc(NC(=O)NCc2ccc3c(c2)cc(C)n3C)c1` stands 12 µM; under `COc1ccc(NC(=O)N(C)C[C@H]2Oc3ccc(NS(=O)(=O)c4cccs4)cc3C(=O)N([C@H](C)CO)C[C@@H]2C)cc1`, 17.7 µM.
Same read-out and setting: under `Cc1cc2cc(CNC(=O)Nc3ccc(Cl)c(Cl)c3)ccc2n1C` stands 10.1 µM.
Turning to `Cc1cc2ccccc2n1CCNC(=O)COc1ccc2ccccc2c1`, the AC40 is 11.3 µM.
Same read-out and setting: the figure for `Cc1ccc(S(=O)(=O)NCc2ccc3c(c2)cc(C)n3C)cc1` is 13.6 µM; for `CC(C)(C)[S@](=O)N1Cc2cc(C(=O)N[C@H]3CCN(Cc4ccccc4)C3)nc(-c3cccc(-c4ccncc4)c3)c2[C@@H]1CCO` it is 13.2 µM.
For the compound `COc1cccc(CNC(=O)c2cc3c(c(-c4cccc(-c5ccc(C#N)cc5)c4)n2)[C@H](CCO)N([S@@](=O)C(C)(C)C)C3)c1`, the AC40 is 14.7 µM.

System in the next test: not listed separately
Described as above. The conditions noted are these: HUVEC E-selectin immunostaining, at 19.5 µM (top of the series), percent of TNF-alpha response over vehicle.
In the case of `C[C@@H]1CN([C@@H](C)CO)C(=O)Cc2cc(NC(=O)Cc3cn(C)c4ccccc34)ccc2O[C@H]1CN(C)Cc1ccc(C(F)(F)F)cc1`, the activation was 1.99% (inactive).
On the same count and under the same terms, the figure for `O=S(=O)(c1ccc(F)cc1)N1CCCN(c2nccc(C(F)(F)F)n2)CC1` is -0.174% (inactive); for `CCCNC(=O)N(C)C[C@H]1Oc2ncc(C3=CCCC3)cc2C(=O)N([C@H](C)CO)C[C@@H]1C` it is -0.163% (inactive).
Consider `Cc1ccccc1N(CC(=O)NC1CCCCC1)C(=O)CNC(=O)c1cccs1`, for which the activation is 0.744% (inactive).

For the origin of these results see PubChem BioAssay AID977605 (Broad Institute, 2014).
